Measurements published in ChEMBL document CHEMBL5143625, “Isolation, synthesis and bioactivity evaluation of isoquinoline alkaloids from Corydalis hendersonii Hemsl. against gastric cancer in vitro and in vivo” (Bioorg Med Chem, 2022).
Active and inactive are the calls of the source. No cut-off for these calls is given here.

Columns and labels:
MGC-803 [1] = experiment: Antiproliferative activity against human MGC-803 cells assessed as reduction in cell viability after 24 hrs by MTT assay; format: functional, cell-based; settings: MGC-803, 24 h
GES1 = experiment: Antiproliferative activity against human GES1 cells assessed as reduction in cell viability after 24 hrs by MTT assay; format: functional, cell-based; settings: GES1, 24 h
MGC-803 [2] = experiment: Inhibition of colony formation in human MGC-803 cells at 0.5 to 4 uM after 7 to 10 days by crystal violet staining based assay; format: functional, cell-based; settings: dose 0.5-4 µM, time 7-10 day, DDE = dose-dependent effect
HGC-27 [3] = experiment: Inhibition of colony formation in human HGC-27 cells at 1 to 8 uM after 7 to 10 days by crystal violet staining based assay; format: functional, cell-based; settings: dose 1-8 µM, time 7-10 day, DDE = dose-dependent effect
MGC-803 [4] = experiment: Antiproliferative activity against human MGC-803 cells assessed as EdU positive cells at 0.5 to 4 uM for 24 hrs by y EdU assay (reference value: 65.2%); format: functional; settings: dose 0.5-4 µM
HGC-27 [5] = experiment: Inhibition of cell migration in human HGC-27 cells assessed as reduction in migration at 1 to 8 uM for 24 hrs by wound healing assay; format: functional, cell-based; settings: dose 1-8 µM, DDE = dose-dependent effect
HGC-27 [6] = experiment: Inhibition of cell migration in human HGC-27 cells assessed as reduction in migration at 1 to 8 uM for 24 hrs by transwell migration assay; format: functional, cell-based; settings: dose 1-8 µM, DDE = dose-dependent effect
HGC-27 [7] = experiment: Inhibition of cell invasion in human HGC-27 cells assessed as reduction in invasion at 1 to 8 uM for 24 hrs by transwell invasion assay; format: functional, cell-based; settings: dose 1-8 µM, DDE = dose-dependent effect
MGC-803 [8] = experiment: Down regulation of MMP9 expression in human MGC-803 cells at 1.25 to 10 uM after 24 hrs by western blot analysis; format: functional, cell-based; settings: dose 1.25-10 µM, DDE = dose-dependent effect
MGC-803 [9] = experiment: Induction of apoptosis in human MGC-803 cells assessed as increase in twin-kiling cell nuclei at 1.25 to 10 uM by Hoechst 33342 staining based fluorescent microscopic analysis; format: functional; settings: dose 1.25-10 µM
HGC-27 [10] = experiment: Induction of apoptosis in human HGC-27 cells assessed as increase in twin-kiling cell nuclei at 2 to 16 uM by Hoechst 33342 staining based fluorescent microscopic analysis; format: functional; settings: dose 2-16 µM
MGC-803 [11] = experiment: Induction of apoptosis in human MGC-803 cells assessed as increase in apoptotic cells at 1.25 to 10 uM after 48 hr by AnnexinV-FITC/PI staining based flow cytometric analysis (reference value: 2.71%); format: functional, cell-based; settings: dose 1.25-10 µM, DDE = dose-dependent effect
HGC-27 [12] = experiment: Induction of apoptosis in human HGC-27 cells assessed as increase in apoptotic cells at 2 to 16 uM after 48 hr by AnnexinV-FITC/PI staining based flow cytometric analysis (reference value: 5.03%); format: functional, cell-based; settings: dose 2-16 µM, DDE = dose-dependent effect
MGC-803 [13] = experiment: Induction of mitochondrial membrane potential loss in human MGC-803 cells assessed as TMRE positive cells at 1.25 to 10 uM by TRME staining based flow cytometric analysis (reference value: 6.8%); format: functional, cell-based; settings: dose 1.25-10 µM, DDE = dose-dependent effect
HGC-27 [14] = experiment: Induction of apoptosis in human HGC-27 cells assessed as reduction in BCl2 expression at 2 to 16 uM by western blot analysis; format: functional, cell-based; settings: dose 2-16 µM, DDE = dose-dependent effect
HGC-27 [15] = experiment: Induction of apoptosis in human HGC-27 cells assessed as increase in Bax expression at 2 to 16 uM by western blot analysis; format: functional, cell-based; settings: dose 2-16 µM, DDE = dose-dependent effect
HGC-27 [16] = experiment: Induction of apoptosis in human HGC-27 cells assessed as decrease in cytochrome C expression at 2 to 16 uM by western blot analysis; format: functional, cell-based; settings: dose 2-16 µM, DDE = dose-dependent effect
MGC-803 [17] = experiment: Induction of apoptosis in human MGC-803 cells assessed as increase in cleaved caspase-3 expression at 1.25 to 10 uM by western blot analysis; format: functional, cell-based; settings: dose 1.25-10 µM, DDE = dose-dependent effect
HGC-27 [18] = experiment: Induction of apoptosis in human HGC-27 cells assessed as increase in cleaved caspase-3 expression at 2 to 16 uM by western blot analysis; format: functional, cell-based; settings: dose 2-16 µM, DDE = dose-dependent effect
MGC-803 [19] = experiment: Induction of apoptosis in human MGC-803 cells assessed as increase in cleaved caspase-9 expression at 1.25 to 10 uM by western blot analysis; format: functional, cell-based; settings: dose 1.25-10 µM, DDE = dose-dependent effect
HGC-27 [20] = experiment: Induction of apoptosis in human HGC-27 cells assessed as increase in cleaved caspase-9 expression at 2 to 16 uM by western blot analysis; format: functional, cell-based; settings: dose 2-16 µM, DDE = dose-dependent effect
MGC-803 [21] = experiment: Induction of ROS generation in human MGC-803 cells at 1.25 to 10 uM by DCFH-DA staining based fluorescence microscopic analysis; format: functional, cell-based; settings: dose 1.25-10 µM, DDE = dose-dependent effect
MGC-803 [22] = experiment: Inhibition of PI3K/AKT/mTOR signalling pathway in human MGC-803 cells assessed as reduction in PI3K phosphorylation at 1.25 to 10 uM by western blot analysis; format: cell-based; settings: dose 1.25-10 µM, DDE = dose-dependent effect
MGC-803 [23] = experiment: Inhibition of PI3K/AKT/mTOR signalling pathway in human MGC-803 cells assessed as reduction in AKT phosphorylation at 1.25 to 10 uM by western blot analysis; format: cell-based; settings: dose 1.25-10 µM, DDE = dose-dependent effect
HGC-27 [24] = experiment: Inhibition of PI3K/AKT/mTOR signalling pathway in human HGC-27 cells assessed as reduction in AKT phosphorylation at 2 to 16 uM by western blot analysis; format: cell-based; settings: dose 2-16 µM, DDE = dose-dependent effect
MGC-803 [25] = experiment: Inhibition of PI3K/AKT/mTOR signalling pathway in human MGC-803 cells assessed as reduction in mTOR phosphorylation at 1.25 to 10 uM by western blot analysis; format: cell-based; settings: dose 1.25-10 µM, DDE = dose-dependent effect
HGC-27 [26] = experiment: Inhibition of PI3K/AKT/mTOR signalling pathway in human HGC-27 cells assessed as reduction in mTOR phosphorylation at 2 to 16 uM by western blot analysis; format: cell-based; settings: dose 2-16 µM, DDE = dose-dependent effect
HGC-27 [27] = experiment: Inhibition of DNA topoisomerase 1 in human HGC-27 cells assessed as relaxation of supercoiled plasmid pBR322 DNA at 15 to 30 uM incubated for 30 mins by agarose gel electrophoresis; format: cell-based; settings: dose 15-30 µM
[28] = Half life in Sprague-Dawley rat at 50 mg/kg, ip measured upto 24 hrs by LC-MS analysis; format: ADME, organism-based; settings: in vivo
[29] = Cmax in Sprague-Dawley rat at 50 mg/kg, ip measured upto 24 hrs by LC-MS analysis; format: ADME, organism-based; set-up: time < 24 hrs, dose 50 mg/kg, route ip; settings: in vivo
[30] = AUC(0 to t) in Sprague-Dawley rat at 50 mg/kg, ip measured upto 24 hrs by LC-MS analysis; format: ADME, organism-based; set-up: time < 24 hrs, dose 50 mg/kg, route ip; settings: in vivo
[31] = MRT(0 to t) in Sprague-Dawley rat at 50 mg/kg, ip measured upto 24 hrs by LC-MS analysis; format: ADME, organism-based; settings: in vivo
MGC-803 [32] = experiment: Antitumor activity against human MGC-803 cells xenografted in immunodeficient nude mouse assessed as increase in survival at 50 mg/kg, ip administered for 3 weeks; format: functional, organism-based
MGC-803 [33] = experiment: Antitumor activity against human MGC-803 cells xenografted in immunodeficient nude mouse assessed as reduction in tumor growth at 50 mg/kg, ip administered for 3 weeks relative to control; format: functional; settings: MGC-803, 504 h, read-out: TGI
[34] = Toxicity in immunodeficient nude mouse xenografted with human MGC-803 cells assessed as reduction in body weight at 50 mg/kg, ip administered for 3 weeks relative to control; format: organism-based; settings: in vivo, 504 h

SMILES: Oc1c(Cc2nccc3cc4c(cc23)OCO4)ccc2c1OCO2
- IC50 (MGC-803 [1]): 5.1 µM
- IC50 (GES1): 98.4 µM
- inhibition (MGC-803 [2]): Dde
- inhibition (HGC-27 [3]): Dde
- Activity (MGC-803 [4]): 19.9%
- inhibition (HGC-27 [5]): Dde
- inhibition (HGC-27 [6]): Dde
- inhibition (HGC-27 [7]): Dde
- Activity (MGC-803 [8]): Dde
- Activity (MGC-803 [9]): 29.5%
- Activity (MGC-803 [9]; DDE = dose-dependent effect): Dde
- Activity (HGC-27 [10]): 41.1%
- Activity (HGC-27 [10]; DDE = dose-dependent effect): Dde
- Activity (MGC-803 [11]): Dde
- Activity (HGC-27 [12]): Dde
- Activity (MGC-803 [13]): Dde
- Activity (HGC-27 [14]): Dde
- Activity (HGC-27 [15]): Dde
- Activity (HGC-27 [16]): Dde
- Activity (MGC-803 [17]): Dde
- Activity (HGC-27 [18]): Dde
- Activity (MGC-803 [19]): Dde
- Activity (HGC-27 [20]): Dde
- Activity (MGC-803 [21]): Dde
- inhibition (MGC-803 [22]): Dde
- inhibition (MGC-803 [23]): Dde
- inhibition (HGC-27 [24]): Dde
- inhibition (MGC-803 [25]): Dde
- inhibition (HGC-27 [26]): Dde
- inhibition (HGC-27 [27]): Active
- half-life [28]: 2.3 h
- Cmax [29]: 8900 ng/mL
- AUC(0-t) at 24 h [30]: 29500 ng·h/mL
- MRT last at 24 h [31]: 3.3 h
- Activity (MGC-803 [32]): Active
- inhibition in vivo at 50 mg/kg (MGC-803 [33]): 63.8%
- Activity [34]: Non-Toxic
